In the first data set the target is VLA-4-IgG chimera protein (Homo sapiens, UniProt P05556+P13612). Briefly: Inhibitory effect against binding between CS-1 peptide and VLA-4-IgG chimera protein. As to conditions: binding of VLA-4-IgG chimera protein to immobilized CS-1 peptide-rabbit IgG conjugate; compound preincubated 20 min; 30° C. 3 hours; absorbance at 490 nm. As to the method:
The inhibitory activity of the compound according to the present invention against the adhesion of VLA-4 may be determined by using an adhesion-measuring system in which the adhesion between VLA-4-expressing cells such as Ramos cells or Jurkat cells and fibronectin or fibronectin fragment such as a peptide containing CS-1 sequence (Gly Pro Glu Ile Leu Asp Val Pro Ser Thr) (hereinafter referred to as “CS-1 peptide”), immobilized on an immunoplate is measured. Alternatively, a binding-measuring system in which the adhesion between VLA-4 protein and fibronectin or fibronectin fragment such as CS-1 peptide, immobilized on an immunoplate may be used. In the present invention, it is preferred to evaluate the inhibitory activity of a compound using a binding-measuring system in which adhesion between a chimera protein of VLA-4-immunoglobulin (VLA-4-IgG chimera protein) and CS-1 peptide (Japanese Patent Application No. H9-234544), but the method is not restricted thereto. The “VLA-4-IgG chimera protein” herein means the heterodimer complex of the chimera protein between α4 of VLA-4 and immunoglobulin (hereinafter referred to as “VLAα4-IgG chimera protein”) and a chimera protein between β1 of VLA-4 and immunoglobulin (hereinafter referred to as “VLAβ1-IgG chimera protein”). As the immunoglobulin, although heavy chain or light chain of IgG, IgM or the like may be used, IgG1 heavy chain is used in the present invention. When testing the inhibitory effect of a compound, it is preferred to mix VLA-4-IgG chimera protein and the test compound previously.
In accordance with the teaching of a report (Humphrise, M. J. et al. J.Bio.Chem., 262,6886-6892(1987)), a conjugate between a peptide (Gys Leu His Gly Pro Glu Glu Ile Leu Asp Val Pro Ser Thr) containing CS-1 sequence and rabbit IgG (Sigma) was prepared. This was diluted with phosphate buffer (hereinafter referred to as “PBS(−)” for short), and the obtained solution was placed in the wells of a 96-well immunoplate (NUNC) in an amount of 100 μl/well, followed by leaving to stand the immunoplate at 4° C. for 16 hours to immobilize the conjugate.
The wells were then washed twice with PBS(−), and 1% BSA solution in PBS, which BSA was heated at 80° C. for 10 minutes, was placed in each well in an amount of 300 μl/well. The immunoplate was left to stand at 4° C. for 3 hours, and then the solution in each well was removed by suction.
Each compound and VLA-4-IgG chimera protein (100 μl) were preliminarily reacted at room temperature for 20 minutes, and then the resulting mixture was allowed to react with the CS-1 peptide in each well at 30° C. for 3 hours. Thereafter, non-bound VLA-4-IgG chimera protein was removed by suction, and each well was washed twice with 0.1% BSA-containing TBS buffer (150 mM NaCl, 25 mM Tris-HCl, 1 mM MnCl2, PH7.4). To the bound VLA-4-IgG chimera protein, biotin-labelled anti-human IgG antibody (Vector) as a primary antibody was added, and then avidin-labelled horse radish peroxidase (Sigma) as a secondary antibody was added, thereby allowing the reactions. Then o-phenylenediamine as a substrate was added to color the reaction solution, and the absorbance at 490 nm was measured. From this absorbance, the binding inhibitory activity of each compound was determined.
Chain of VLA-4-IgG chimera protein (P13612 with tags, fused parts or gaps limits assumed): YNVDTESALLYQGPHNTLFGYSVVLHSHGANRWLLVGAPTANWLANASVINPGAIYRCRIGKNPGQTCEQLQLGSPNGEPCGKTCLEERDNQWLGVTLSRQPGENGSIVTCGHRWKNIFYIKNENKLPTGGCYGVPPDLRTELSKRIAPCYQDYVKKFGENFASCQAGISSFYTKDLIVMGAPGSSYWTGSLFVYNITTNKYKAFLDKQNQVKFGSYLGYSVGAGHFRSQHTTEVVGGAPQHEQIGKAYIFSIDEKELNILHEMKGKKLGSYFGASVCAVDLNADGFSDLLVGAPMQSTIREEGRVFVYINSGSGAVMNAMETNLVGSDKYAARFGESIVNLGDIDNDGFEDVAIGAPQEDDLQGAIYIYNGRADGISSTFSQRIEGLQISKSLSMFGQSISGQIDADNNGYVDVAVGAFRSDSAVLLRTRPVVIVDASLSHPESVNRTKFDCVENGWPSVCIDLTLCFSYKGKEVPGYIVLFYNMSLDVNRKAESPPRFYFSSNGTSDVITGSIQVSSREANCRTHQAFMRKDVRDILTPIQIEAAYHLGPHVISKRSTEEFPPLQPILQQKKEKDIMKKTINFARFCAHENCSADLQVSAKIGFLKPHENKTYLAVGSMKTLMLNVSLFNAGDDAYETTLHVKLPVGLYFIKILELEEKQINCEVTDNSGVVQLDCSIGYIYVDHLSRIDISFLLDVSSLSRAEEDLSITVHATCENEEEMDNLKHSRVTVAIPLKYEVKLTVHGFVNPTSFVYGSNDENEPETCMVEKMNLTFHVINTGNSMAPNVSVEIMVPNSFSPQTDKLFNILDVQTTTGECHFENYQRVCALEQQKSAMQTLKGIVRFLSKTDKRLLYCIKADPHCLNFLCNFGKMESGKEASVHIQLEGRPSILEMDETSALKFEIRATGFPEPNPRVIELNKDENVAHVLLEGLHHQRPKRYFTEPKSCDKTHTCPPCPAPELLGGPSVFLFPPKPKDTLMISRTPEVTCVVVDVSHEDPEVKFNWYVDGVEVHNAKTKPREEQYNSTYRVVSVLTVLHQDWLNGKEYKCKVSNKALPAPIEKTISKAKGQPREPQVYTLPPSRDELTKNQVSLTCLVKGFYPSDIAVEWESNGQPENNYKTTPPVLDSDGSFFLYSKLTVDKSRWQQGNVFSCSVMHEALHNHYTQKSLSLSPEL
Chain of VLA-4-IgG chimera protein (P05556 with tags, fused parts or gaps limits assumed): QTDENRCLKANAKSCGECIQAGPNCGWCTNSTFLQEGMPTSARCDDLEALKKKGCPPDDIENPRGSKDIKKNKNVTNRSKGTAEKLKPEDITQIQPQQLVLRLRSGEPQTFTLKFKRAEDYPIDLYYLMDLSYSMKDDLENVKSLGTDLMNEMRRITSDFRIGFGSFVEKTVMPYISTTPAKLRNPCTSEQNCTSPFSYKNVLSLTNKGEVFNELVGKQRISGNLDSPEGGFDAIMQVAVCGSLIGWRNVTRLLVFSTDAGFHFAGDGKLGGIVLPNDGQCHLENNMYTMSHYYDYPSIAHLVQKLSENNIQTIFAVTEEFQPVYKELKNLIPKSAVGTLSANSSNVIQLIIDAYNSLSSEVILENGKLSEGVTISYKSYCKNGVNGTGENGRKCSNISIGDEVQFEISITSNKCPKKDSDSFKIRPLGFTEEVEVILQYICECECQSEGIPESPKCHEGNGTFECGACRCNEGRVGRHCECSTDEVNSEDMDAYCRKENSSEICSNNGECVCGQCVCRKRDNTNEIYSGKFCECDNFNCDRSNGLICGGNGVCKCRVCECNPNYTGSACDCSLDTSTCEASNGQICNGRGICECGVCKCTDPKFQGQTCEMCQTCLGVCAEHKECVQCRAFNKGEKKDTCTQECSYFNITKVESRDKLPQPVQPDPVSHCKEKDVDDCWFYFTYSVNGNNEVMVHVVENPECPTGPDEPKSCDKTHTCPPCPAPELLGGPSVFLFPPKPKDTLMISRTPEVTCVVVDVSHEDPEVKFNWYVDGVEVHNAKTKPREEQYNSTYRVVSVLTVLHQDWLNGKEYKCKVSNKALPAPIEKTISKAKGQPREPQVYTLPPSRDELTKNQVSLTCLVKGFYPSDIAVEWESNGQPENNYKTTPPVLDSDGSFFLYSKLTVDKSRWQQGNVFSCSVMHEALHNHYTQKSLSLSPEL
In the case of `O=C(Nc1ccn(C[C@H](NC(=O)N2CCC3(CC2)C(=O)NCN3c2ccccc2)C(=O)O)c(=O)n1)c1c(Cl)cccc1Cl` [Compound 35], the IC50 (as a rule, the concentration needed to halve the response being measured) was found to be 2.4 nM. Same read-out and setting: under `CS(=O)(=O)N1CC2(CCN(C(=O)N[C@@H](Cn3ccc(NC(=O)c4c(Cl)cccc4Cl)nc3=O)C(=O)O)CC2)c2ccccc21` [Compound 28, 3-(4-((2,6-dichlorophenyl)carbonylamino)-2-oxohydropyrimidinyl)-2-((1-(methylsulfonyl)spiro[indoline-3,4′-piperidin]-10-yl)carbonylamino)propanoic Acid] stands 3.8 nM; under `CC(=O)NC1(c2ccccc2)CCN(C(=O)N[C@@H](Cn2ccc(NC(=O)c3c(Cl)cccc3Cl)nc2=O)C(=O)O)CC1` [Compound 37], 3.5 nM. On the same count and under the same terms, next, `C[C@@H]1CCC[C@H](C)N1C(=O)N[C@@H](Cn1ccc(NC(=O)c2c(Cl)cccc2Cl)nc1=O)C(=O)O` [Compound 50, 3-(4-((2,6-dichlorophenyl)carbonylamino)-2-oxohydropyrimidinyl)-2-((2,6-dimethylpiperidyl)carbonylamino)propanoic Acid]: 4.5 nM; `O=C(Nc1ccn(C[C@H](NC(=O)N2CCC(n3c(=O)[nH]c4ccccc43)CC2)C(=O)O)c(=O)n1)c1c(Cl)cccc1Cl` [Compound 32, 3-(4-((2,6-dichlorophenyl)carbonylamino)-2-oxohydropyrimidinyl)-2-((4-(2-oxo-3-azaindolinyl)piperidyl)carbonylamino)propanoic Acid]: 0.97 nM.

Test system in a further data set: not given
Assay: not given
Conditions: not given
In the case of `O=C(N[C@@H](Cn1ccc(NC(=O)c2c(Cl)cccc2Cl)nc1=O)C(=O)O)NC1(C(=O)Nc2ccccc2)CCCCC1` [Compound 8, 3-(4-((2,6-dichlorophenyl)carbonylamino)-2-oxohydropyrimidinyl)-2-((((N-phenylcarbamoyl)cyclohexyl)amino)carbonylamino)propanoic Acid], the melting point (as a rule, the temperature, or range, at which the solid turns liquid) lay within 193 to 195 °C. The same measure, in the same setting: next, `O=C(Nc1ccc(C[C@@H](C(=O)O)N2C(=O)NC3(CCCCC3)C2=O)cc1)c1c(Cl)cccc1Cl` [Compound 44]: 250 °C.

Values taken from US20040039040A1, “Urea derivative and adhesive-molecule inhibitor containing the same as active ingredient” (priority 2000, published 2004).
